# Reference: PMC5218480 (PLoS ONE, 2017)
# System: MV-4-11 cells
# Test: Gene expression microarray analysis (Affymetrix PrimeView) and GSEA
# Type: cell-based, human
# Parameters: RFU PODN (11730768_x_at) / Fold change /veh PODN (11730768_x_at) / RFU LINC00158 (11744669_a_at) / Fold change /veh LINC00158 (11744669_a_at) / RFU DUSP10 (11751237_a_at) / Fold change /veh DUSP10 (11751237_a_at) / RFU ID3 (11757404_x_at) / Fold change /veh ID3 (11757404_x_at) / RFU PLEKHG5 (11737974_s_at) / Fold change /veh PLEKHG5 (11737974_s_at) / RFU LRRC4B (11730491_at) / Fold change /veh LRRC4B (11730491_at) / RFU GIMAP4 (11747438_a_at) / Fold change /veh GIMAP4 (11747438_a_at) / RFU KRT8 (11758183_x_at) / Fold change /veh KRT8 (11758183_x_at) / RFU CNN1 (11734310_a_at) / Fold change /veh CNN1 (11734310_a_at) / RFU VPS37D (11726825_at) / Fold change /veh VPS37D (11726825_at) / RFU C10orf10 (11716522_x_at) / Fold change /veh C10orf10 (11716522_x_at) / RFU KIR2DL2 /// KIR2DL4 /// KIR2DL5A /// KIR2DL5B /// KIR2DS1 /// KIR2DS2 /// KIR2DS3 /// KIR2DS4 /// KIR3DL3 /// KIR3DL3 /// KIR3DS1 (11738374_at) / Fold change /veh KIR2DL2 /// KIR2DL4 /// KIR2DL5A /// KIR2DL5B /// KIR2DS1 /// KIR2DS2 /// KIR2DS3 /// KIR2DS4 /// KIR3DL3 /// KIR3DL3 /// KIR3DS1 (11738374_at) / RFU C1QL1 (11718748_at) / Fold change /veh C1QL1 (11718748_at) / RFU TMPRSS4 (11747572_a_at) / Fold change /veh TMPRSS4 (11747572_a_at) / RFU HAMP (11756126_x_at) / Fold change /veh HAMP (11756126_x_at) / RFU RNFT2 (11725882_a_at) / Fold change /veh RNFT2 (11725882_a_at) / RFU NR4A2 (11747474_a_at) / Fold change /veh NR4A2 (11747474_a_at) / RFU ABCC12 (11746883_a_at) / Fold change /veh ABCC12 (11746883_a_at) / RFU TMEM136 (11760407_x_at) / Fold change /veh TMEM136 (11760407_x_at) / RFU CLDN22 /// WWC2 (11732394_at) / Fold change /veh CLDN22 /// WWC2 (11732394_at) / RFU HLA-DPB1 (11760878_x_at) / Fold change /veh HLA-DPB1 (11760878_x_at) / RFU SPINT1 (11716480_a_at) / Fold change /veh SPINT1 (11716480_a_at) / RFU GAP43 (11754022_s_at) / Fold change /veh GAP43 (11754022_s_at) / RFU A4GNT (11735810_at) / Fold change /veh A4GNT (11735810_at) / RFU PRB3 (11715151_x_at) / Fold change /veh PRB3 (11715151_x_at) / RFU TUBB4B (11761932_at) / Fold change /veh TUBB4B (11761932_at) / RFU CAPN14 (11732068_a_at) / Fold change /veh CAPN14 (11732068_a_at) / RFU TMCC2 (11721928_a_at) / Fold change /veh TMCC2 (11721928_a_at) / RFU IRGQ (11745062_a_at) / Fold change /veh IRGQ (11745062_a_at) / RFU FAM174B (11720279_a_at) / Fold change /veh FAM174B (11720279_a_at) / RFU TMPRSS4 (11748680_a_at) / Fold change /veh TMPRSS4 (11748680_a_at) / RFU FAM212B (11763350_a_at) / Fold change /veh FAM212B (11763350_a_at) / RFU PLEKHG5 (11743358_a_at) / Fold change /veh PLEKHG5 (11743358_a_at) / RFU ZSCAN30 (11745921_a_at) / Fold change /veh ZSCAN30 (11745921_a_at) / RFU CMKLR1 (11741424_a_at) / Fold change /veh CMKLR1 (11741424_a_at) / RFU LOC101060620 /// MAPK8IP1 (11723275_at) / Fold change /veh LOC101060620 /// MAPK8IP1 (11723275_at) / RFU SPTSSB (11747773_x_at) / Fold change /veh SPTSSB (11747773_x_at) / RFU PRSS12 (11739890_at) / Fold change /veh PRSS12 (11739890_at) / RFU BIN1 (11741810_x_at) / Fold change /veh BIN1 (11741810_x_at) / RFU WNT11 (11732464_a_at) / Fold change /veh WNT11 (11732464_a_at) / RFU C10orf10 (11716521_a_at) / Fold change /veh C10orf10 (11716521_a_at) / RFU C5orf56 (11738089_at) / Fold change /veh C5orf56 (11738089_at) / RFU CYB561 (11721691_x_at) / Fold change /veh CYB561 (11721691_x_at) / RFU ANKRD19P (11752326_a_at) / Fold change /veh ANKRD19P (11752326_a_at) / RFU OR2T12 /// OR2T33 /// OR2T8 (11738714_s_at) / Fold change /veh OR2T12 /// OR2T33 /// OR2T8 (11738714_s_at) / RFU VCAN (11748164_a_at) / Fold change /veh VCAN (11748164_a_at) / RFU JSRP1 (11732532_at) / Fold change /veh JSRP1 (11732532_at) / RFU KRTAP10-11 (11738290_x_at) / Fold change /veh KRTAP10-11 (11738290_x_at) / RFU MYO3A (11730013_a_at) / Fold change /veh MYO3A (11730013_a_at) / RFU EBF3 (11725865_a_at) / Fold change /veh EBF3 (11725865_a_at) / RFU CAMK2N1 (11719241_x_at) / Fold change /veh CAMK2N1 (11719241_x_at) / RFU C5orf56 (11738088_a_at) / Fold change /veh C5orf56 (11738088_a_at) / RFU OLFML3 (11715873_a_at) / Fold change /veh OLFML3 (11715873_a_at) / RFU LOC100653217 /// NTM (11731650_a_at) / Fold change /veh LOC100653217 /// NTM (11731650_a_at) / RFU MAPK11 (11762145_a_at) / Fold change /veh MAPK11 (11762145_a_at) / RFU FIZ1 (11724087_x_at) / Fold change /veh FIZ1 (11724087_x_at) / RFU OASL (11726364_x_at) / Fold change /veh OASL (11726364_x_at) / RFU SOX15 (11748057_x_at) / Fold change /veh SOX15 (11748057_x_at) / RFU CD79A (11719716_a_at) / Fold change /veh CD79A (11719716_a_at) / RFU HIST1H1D (11736915_at) / Fold change /veh HIST1H1D (11736915_at) / RFU CASKIN2 (11723855_a_at) / Fold change /veh CASKIN2 (11723855_a_at) / RFU LOC730098 (11760151_x_at) / Fold change /veh LOC730098 (11760151_x_at) / RFU OR4N2 (11742367_at) / Fold change /veh OR4N2 (11742367_at) / RFU PRRT2 (11749266_a_at) / Fold change /veh PRRT2 (11749266_a_at) / RFU SNX32 (11753110_a_at) / Fold change /veh SNX32 (11753110_a_at) / RFU CDHR5 (11726645_a_at) / Fold change /veh CDHR5 (11726645_a_at) / RFU RCAN1 (11760418_a_at) / Fold change /veh RCAN1 (11760418_a_at) / RFU FAM167A (11723789_a_at) / Fold change /veh FAM167A (11723789_a_at) / RFU FAM26E (11764081_at) / Fold change /veh FAM26E (11764081_at) / RFU ISYNA1 (11749810_s_at) / Fold change /veh ISYNA1 (11749810_s_at) / RFU ACY1 (11761880_at) / Fold change /veh ACY1 (11761880_at) / RFU 11764098_at / Fold change /veh 11764098_at / RFU SAMD14 (11745864_x_at) / Fold change /veh SAMD14 (11745864_x_at) / RFU NPB (11741838_a_at) / Fold change /veh NPB (11741838_a_at) / RFU TMPRSS6 (11731388_a_at) / Fold change /veh TMPRSS6 (11731388_a_at) / RFU KRTAP10-2 (11738614_at) / Fold change /veh KRTAP10-2 (11738614_at) / RFU ARHGAP8 /// PRR5-ARHGAP8 (11727945_x_at) / Fold change /veh ARHGAP8 /// PRR5-ARHGAP8 (11727945_x_at) / RFU KRTAP5-7 /// NADSYN1 (11734609_at) / Fold change /veh KRTAP5-7 /// NADSYN1 (11734609_at) / RFU RASL12 (11751679_a_at) / Fold change /veh RASL12 (11751679_a_at) / RFU CDKN2B (11736163_a_at) / Fold change /veh CDKN2B (11736163_a_at) / RFU PRF1 (11729649_at) / Fold change /veh PRF1 (11729649_at) / RFU, ZNF638 /// ZNF638-IT1 / Fold change vs veh, ZNF638 /// ZNF638-IT1 / RFU, PANK3 / Fold change vs veh, PANK3 / RFU, SH3YL1 / Fold change vs veh, SH3YL1 / RFU, ZEB2 / Fold change vs veh, ZEB2 / RFU, NRIP1 / Fold change vs veh, NRIP1 / RFU, PTTG1IP / Fold change vs veh, PTTG1IP / RFU, CAPN2 / Fold change vs veh, CAPN2 / RFU, MED14 / Fold change vs veh, MED14 / RFU, SNORA58 / Fold change vs veh, SNORA58 / RFU, C1orf63 / Fold change vs veh, C1orf63 / RFU, LRRFIP1 / Fold change vs veh, LRRFIP1 / RFU, NDUFAF7 / Fold change vs veh, NDUFAF7 / RFU, SLC12A2 / Fold change vs veh, SLC12A2 / RFU, IBTK / Fold change vs veh, IBTK / RFU, ESF1 / Fold change vs veh, ESF1 / Fold change vs veh, TMEM50B / RFU, TAOK1 / Fold change vs veh, TAOK1 / RFU, ACBD3 / Fold change vs veh, ACBD3 / RFU, TMA16 / Fold change vs veh, TMA16 / RFU, RWDD3 / Fold change vs veh, RWDD3 / RFU, BCAT1 / Fold change vs veh, BCAT1 / RFU, EDEM3 / Fold change vs veh, EDEM3 / RFU, TMEM33 / Fold change vs veh, TMEM33 / RFU, WDR75 / Fold change vs veh, WDR75 / RFU, AHCTF1 / Fold change vs veh, AHCTF1 / RFU, TFRC / Fold change vs veh, TFRC / RFU, ZDHHC17 / Fold change vs veh, ZDHHC17 / RFU, NOM1 / Fold change vs veh, NOM1 / RFU, ARL8B / Fold change vs veh, ARL8B / RFU, ZBTB11 / Fold change vs veh, ZBTB11 / RFU, TAMM41 / Fold change vs veh, TAMM41 / RFU, KIAA1704 /// LOC100996395 / Fold change vs veh, KIAA1704 /// LOC100996395 / RFU, ING1 / Fold change vs veh, ING1 / RFU, TRMT61B / Fold change vs veh, TRMT61B / RFU, FUBP3 / Fold change vs veh, FUBP3 / RFU, TP53 / Fold change vs veh, TP53 / RFU, TNKS2 / Fold change vs veh, TNKS2 / RFU, ZFP14 / Fold change vs veh, ZFP14 / RFU, ACTR2 / Fold change vs veh, ACTR2 / RFU, PPP3R1 / Fold change vs veh, PPP3R1 / RFU, PIK3R1 / Fold change vs veh, PIK3R1 / RFU, HNRNPA1 / Fold change vs veh, HNRNPA1 / RFU, RNF170 / Fold change vs veh, RNF170 / RFU, ZNF28 / Fold change vs veh, ZNF28 / RFU, RNGTT / Fold change vs veh, RNGTT / RFU, OGT / Fold change vs veh, OGT / RFU, BRD1 / Fold change vs veh, BRD1 / RFU, MARS / Fold change vs veh, MARS / RFU, ZNF655 / Fold change vs veh, ZNF655 / RFU, FAHD1 / Fold change vs veh, FAHD1 / RFU, BDP1 / Fold change vs veh, BDP1 / RFU, LRRCC1 / Fold change vs veh, LRRCC1 / RFU, ARID1A / Fold change vs veh, ARID1A / RFU, ZNF146 / Fold change vs veh, ZNF146 / RFU, ZNF330 / Fold change vs veh, ZNF330 / RFU, GPN3 / Fold change vs veh, GPN3 / RFU, C9orf123 / Fold change vs veh, C9orf123 / RFU, N4BP2L2 / Fold change vs veh, N4BP2L2 / RFU, ARFIP1 / Fold change vs veh, ARFIP1 / RFU, FAM179B / Fold change vs veh, FAM179B / RFU, BCL10 / Fold change vs veh, BCL10 / RFU, UHRF1BP1L / Fold change vs veh, UHRF1BP1L / RFU, BET1 / Fold change vs veh, BET1 / RFU, CNOT2 / Fold change vs veh, CNOT2 / RFU, ZNF268 / Fold change vs veh, ZNF268 / Fold change vs veh, ZNF507 / RFU, DGCR2 / Fold change vs veh, DGCR2 / RFU, WDSUB1 / Fold change vs veh, WDSUB1 / Fold change vs veh, HSP90B1 /// MIR3652 / RFU, ADSS / Fold change vs veh, ADSS / RFU, GK / Fold change vs veh, GK / RFU, ZNF148 / Fold change vs veh, ZNF148 / RFU, TAF9 / Fold change vs veh, TAF9 / RFU, SLC1A5 / Fold change vs veh, SLC1A5 / RFU, SLMO2 / Fold change vs veh, SLMO2 / RFU, ABCC4 / Fold change vs veh, ABCC4 / RFU, LOC101060439 /// RAP1B / Fold change vs veh, LOC101060439 /// RAP1B / RFU, RFX7 / Fold change vs veh, RFX7 / RFU, GTPBP10 / Fold change vs veh, GTPBP10 / RFU, CNEP1R1 / Fold change vs veh, CNEP1R1 / RFU, BIVM-ERCC5 /// ERCC5 / Fold change vs veh, BIVM-ERCC5 /// ERCC5 / RFU, ILF3 / Fold change vs veh, ILF3 / RFU 11762660_at / Fold change /veh 11762660_at / RFU VCAN (11757783_s_at) / Fold change /veh VCAN (11757783_s_at) / RFU DDX43 (11728927_at) / Fold change /veh DDX43 (11728927_at) / RFU KRT8 (11758188_x_at) / Fold change /veh KRT8 (11758188_x_at) / RFU NKD1 (11759106_at) / Fold change /veh NKD1 (11759106_at) / RFU SRD5A1 (11742802_a_at) / Fold change /veh SRD5A1 (11742802_a_at) / RFU TPSAB1 /// TPSB2 (11721975_s_at) / Fold change /veh TPSAB1 /// TPSB2 (11721975_s_at) / RFU GSTM3 (11746129_a_at) / Fold change /veh GSTM3 (11746129_a_at) / RFU IL23R (11737362_x_at) / Fold change /veh IL23R (11737362_x_at) / RFU TMEM51 (11727254_a_at) / Fold change /veh TMEM51 (11727254_a_at) / RFU PIWIL2 (11732686_x_at) / Fold change /veh PIWIL2 (11732686_x_at) / RFU ORM1 (11744905_x_at) / Fold change /veh ORM1 (11744905_x_at) / RFU CCDC152 (11743942_at) / Fold change /veh CCDC152 (11743942_at) / RFU ECM1 (11717891_a_at) / Fold change /veh ECM1 (11717891_a_at) / RFU IL23R (11748794_a_at) / Fold change /veh IL23R (11748794_a_at) / RFU TNFAIP8L3 (11732012_x_at) / Fold change /veh TNFAIP8L3 (11732012_x_at) / RFU MBOAT4 (11741988_at) / Fold change /veh MBOAT4 (11741988_at) / RFU 11764193_at / Fold change /veh 11764193_at / RFU TMEM53 (11763286_at) / Fold change /veh TMEM53 (11763286_at) / RFU MAGEB2 (11727129_at) / Fold change /veh MAGEB2 (11727129_at) / RFU TMEM200A (11744735_a_at) / Fold change /veh TMEM200A (11744735_a_at) / RFU CCDC152 (11751479_a_at) / Fold change /veh CCDC152 (11751479_a_at) / RFU FAM211A (11726209_a_at) / Fold change /veh FAM211A (11726209_a_at) / RFU RGS16 (11746705_a_at) / Fold change /veh RGS16 (11746705_a_at) / RFU VCAN (11755009_s_at) / Fold change /veh VCAN (11755009_s_at) / RFU RHOB (11743442_s_at) / Fold change /veh RHOB (11743442_s_at) / RFU RGS16 (11720943_a_at) / Fold change /veh RGS16 (11720943_a_at) / RFU RGS16 (11720944_at) / Fold change /veh RGS16 (11720944_at) / RFU, VPS4B / Fold change vs veh, VPS4B / RFU, CREB1 / Fold change vs veh, CREB1 / RFU, DNAJC13 / Fold change vs veh, DNAJC13 / RFU, GNAQ / Fold change vs veh, GNAQ / RFU, CDK5R1 / Fold change vs veh, CDK5R1 / RFU, ZRANB3 / Fold change vs veh, ZRANB3 / RFU, CUL4A / Fold change vs veh, CUL4A / RFU, CCNY / Fold change vs veh, CCNY / RFU, UFL1 / Fold change vs veh, UFL1 / RFU, COG3 / Fold change vs veh, COG3 / RFU, DIAPH2 / Fold change vs veh, DIAPH2 / RFU, SKA2 / Fold change vs veh, SKA2 / RFU, AFF3 / Fold change vs veh, AFF3 / RFU, LMF1 / Fold change vs veh, LMF1 / RFU, IPO11 / Fold change vs veh, IPO11 / RFU, DFFB / Fold change vs veh, DFFB / RFU, FOXP1 / Fold change vs veh, FOXP1 / RFU, CARD8 / Fold change vs veh, CARD8 / RFU, STRN3 / Fold change vs veh, STRN3 / RFU, ADK / Fold change vs veh, ADK / RFU, RASSF2 / Fold change vs veh, RASSF2 / RFU, WIPF1 / Fold change vs veh, WIPF1 / RFU, LARP1B / Fold change vs veh, LARP1B / RFU, RASA1 / Fold change vs veh, RASA1 / RFU, RB1 / Fold change vs veh, RB1 / RFU, PPFIA1 / Fold change vs veh, PPFIA1 / RFU, MAT2A / Fold change vs veh, MAT2A / RFU, CCT5 / Fold change vs veh, CCT5 / RFU, WDR92 / Fold change vs veh, WDR92 / RFU, CUX1 / Fold change vs veh, CUX1 / RFU, TTC7A / Fold change vs veh, TTC7A / RFU, TMEM135 / Fold change vs veh, TMEM135 / RFU, DEPTOR / Fold change vs veh, DEPTOR / RFU, CPM / Fold change vs veh, CPM / RFU, DNAJB6 / Fold change vs veh, DNAJB6 / RFU, CACNA2D3 / Fold change vs veh, CACNA2D3 / RFU, DTX4 / Fold change vs veh, DTX4 / RFU, TFCP2 / Fold change vs veh, TFCP2 / RFU, GMCL1 /// GMCL1P1 / Fold change vs veh, GMCL1 /// GMCL1P1 / RFU, AEBP2 / Fold change vs veh, AEBP2 / RFU, SNHG1 /// SNORD22 /// SNORD25 /// SNORD26 /// SNORD27 /// SNORD28 /// SNORD29 /// SNORD31 / Fold change vs veh, SNHG1 /// SNORD22 /// SNORD25 /// SNORD26 /// SNORD27 /// SNORD28 /// SNORD29 /// SNORD31 / Fold change (Aza/veh), C12orf56 (ProbeSet 11735607_a_at) / Fold change (ACY-1035/veh), C12orf56 (ProbeSet 11735607_a_at) / Fold change (Aza/veh), FGFR1OP (ProbeSet 11751329_s_at) / Fold change (ACY-1035/veh), FGFR1OP (ProbeSet 11751329_s_at) / Fold change (Aza/veh), VPS36 (ProbeSet 11739960_a_at) / Fold change (ACY-1035/veh), VPS36 (ProbeSet 11739960_a_at) / RFU SYPL1 (11715823_x_at) / Fold change /veh SYPL1 (11715823_x_at) / RFU IGFBP7 (11715501_s_at) / Fold change /veh IGFBP7 (11715501_s_at) / RFU REEP3 (11722064_at) / Fold change /veh REEP3 (11722064_at) / RFU IGLL1 (11728026_x_at) / Fold change /veh IGLL1 (11728026_x_at): dose or concentration left out as unconfirmed
# Conditions: MV-4-11 cells, 48 hours
structure (smiles),measurement,value
Nc1ncn([C@@H]2O[C@H](CO)[C@@H](O)[C@H]2O)c(=O)n1 [azacitidine],Fold change /veh WNT11 (11732464_a_at),0.83
